Assay results published in PMC6781309, “Assessing Drug Interaction and Pharmacokinetics of Loxoprofen in Mice Treated with CYP3A Modulators” (Pharmaceutics, 2019).
Blank lines part the entries; values can stand above or below the compound they belong to.

Legend:
CYP1A = conditions: liver S9, phenacetin 80 µM
Description: To characterize the CYP activities in the harvested livers, phenacetin O-demethylation (using 80 µM of phenacetin) for CYP1A, dextromethorphan O-demethylation (using 5 µM of dextromethorphan) for CYP2D, and midazolam 1’-hydroxylation (using 5 µM of midazolam) for CYP3A were used as cocktail probe reactions [21, 22]. The level of protein in the S9 fraction was determined by Bradford assay [23]. The cocktail probes were then incubated with 10 µL of each S9 fraction, potassium phosphate buffer (pH 7.4), and an NADPH generating system (NGS) in a final volume of 100 µL. After incubation for 30 min at 37 °C, ice-cold ACN containing 0.1% formic acid and IS (5 µM) was added to stop the reaction. Samples were then vortexed and centrifuged at 13,000× g for 10 min at 4 °C. Finally, the supernatants were transferred to LC-MS/MS vials for analysis.

CYP2D = experiment: CYP activity in liver S9 of treated mice: dextromethorphan O-demethylation; format: in vivo, Male ICR mice; conditions: liver S9, dextromethorphan 5 µM
Description: (§1) Twenty-four hours after the last treatment, the liver was excised and homogenized with three volumes of ice-cold 0.1 M potassium phosphate buffer (pH 7.4). The supernatant fraction was then separated as the S9 fraction from the mixture by centrifugation at 9000× g at 4 °C and stored at −80 °C until use.
(§2) To characterize the CYP activities in the harvested livers, phenacetin O-demethylation (using 80 µM of phenacetin) for CYP1A, dextromethorphan O-demethylation (using 5 µM of dextromethorphan) for CYP2D, and midazolam 1’-hydroxylation (using 5 µM of midazolam) for CYP3A were used as cocktail probe reactions. The level of protein in the S9 fraction was determined by Bradford assay. The cocktail probes were then incubated with 10 µL of each S9 fraction, potassium phosphate buffer (pH 7.4), and an NADPH generating system (NGS) in a final volume of 100 µL. After incubation for 30 min at 37 °C, ice-cold ACN containing 0.1% formic acid and IS (5 µM) was added to stop the reaction. Samples were then vortexed and centrifuged at 13,000× g for 10 min at 4 °C. Finally, the supernatants were transferred to LC-MS/MS vials for analysis.

CYP3A = experiment: CYP activity in liver S9 of treated mice: midazolam 1'-hydroxylation; conditions: liver S9, KTC 60 mg/kg i.p. once, midazolam 5 µM, n = 3
Description: as §1, §2

[1] = Plasma pharmacokinetics of LOX, cis-LOX and trans-LOX after oral LOX in mice pretreated with DEX, KTC or vehicle; format: in vivo, Male ICR mice; conditions: mouse plasma, LOX 20 mg/kg oral, mean ± SE, n = 3
Description: The acclimatized animals were divided into eight groups, with each group containing 3 mice: groups I and II, vehicle (corn oil); groups III and IV, DEX-treated; groups V and VI, vehicle (10% Ethanol); and groups VII and VIII, KTC-treated group. […] Then, animals were fasted for 12 hours with free access to water before starting the experiment. […]
After the oral administration of LOX, blood from groups I, III, V, and VII was collected from the tail at 0, 5, 10, 15, 30, 60, 120, and 240 min post-administration and placed into sodium heparin-containing tubes. After the last blood collection, the mice were sacrificed by cervical dislocation. Plasma was then prepared by centrifuging the blood at 4000× g for 15 min at 4 °C and stored at −80 °C until analysis. For analysis, each sample was prepared by mixing plasma (10 µL) and 90 µL of ACN containing 0.1% formic acid and 5 µM of tolbutamide as an internal standard (IS). […] Finally, 10 µL of sample supernatant was injected into the LC-MS/MS system. The PK parameters (the maximum plasma concentration [Cmax], time to reach the maximum plasma concentration [Tmax], elimination half-life [T1/2], and area under the plasma concentrations [AUC]) were analyzed by WinNonlin software (Version 2.1, Scientific Consulting, Louisville, KY, USA).
A Shimadzu Prominence UFLC system (Kyoto, Japan) connected to a TSQ vantage triple quadrupole mass spectrometer with a HESI-II spray source incorporated with a DGU-20A5 degasser, an LC-20AD pump, a SIL-20A autosampler, and a CTO-20A column oven was used for the analyses. A shim-pack GIS C18 column (150 × 3.0 mm, […]) was used to separate analytes in the samples. Mobile phases A and B were composed of water with formic acid and ACN with 0.1% formic acid, respectively, and the flow rate was 0.50 mL/min at 40 °C. The gradient conditions were as follows: 20% of B between 0 and 0.25 min, 20–80% of B between 0.25 and 9.75 min, 80–20% of B between 9.75 and 10 min, and 20% of B between 10 and 13 min. The MS was operated under the following conditions: electrospray ionization in negative mode at 3.0 kV, capillary temperature at 350 °C, vaporizer temperature at 300 °C, sheath gas pressure at 35 Arb, and auxiliary gas pressure at 10 Arb. Finally, Xcalibur software (Thermo Fisher Scientific Inc., Waltham, MA, USA) was used for data analysis.

[2] = Relative concentration of LOX and its metabolites in hepatic portal vein plasma 10 min post-LOX (HRMS); format: in vivo, Male ICR mice; conditions: hepatic portal vein plasma 10 min after LOX 20 mg/kg oral, n = 3; for Relative concentration in plasma (DEX average % of area, VH corn oil = 100): DEX 40 mg/kg i.p. 3 days; for Relative concentration in plasma (KTC average % of area, VH 10% ethanol = 100): KTC 60 mg/kg i.p. single dose
Description: The acclimatized animals were divided into eight groups, with each group containing 3 mice: groups I and II, vehicle (corn oil); groups III and IV, DEX-treated; groups V and VI, vehicle (10% Ethanol); and groups VII and VIII, KTC-treated group. […] Then, animals were fasted for 12 hours with free access to water before starting the experiment. After fasting, LOX (20 mg/kg) was administered orally to […].
Similarly, blood from groups II, IV, VI, and VIII was collected from the hepatic portal vein 10 min post-LOX administration to identify metabolites of LOX and to analyze drug–drug interactions. Plasma from these samples was prepared as explained above. Then, 300 µL of ACN having 0.1% formic acid and 5 µM of the IS were mixed with 100 µL of each plasma sample. […] Supernatants were transferred into tubes and dried using a Labconco Speed Vac (Labconco Corporation, Kansas City, MO, USA). […] Each supernatant was transferred into an LCMS vial, and 5 µL were injected into a high-resolution mass spectrometer (HRMS).
HRMS coupled with ultrahigh performance liquid chromatography (UHPLC) was used to detect hydroxy-LOX and other metabolites of LOX. The UHPLC system, Dionex Ultimate 3000 (Dionex Softron GmbH, Germering, Germany) consisted of an HPG-3200SD Standard binary pump, a WPS 3000 TRS analytical autosampler, and a TCC-3000 SD column compartment. In this experiment, the HRMS was a Q Exactive Focus quadrupole-Orbitrap MS (Thermo Fisher Scientific, Bremen, Germany) equipped with a heated electrospray ionization (HESI-II) ion probe.
LOX was detected as a deprotonated ion [M-H]^− at m/z 245.1175 in negative ion mode. Therefore, negative ion mode was used with the following optimized conditions for LOX: spray voltage of 2.5 kV, capillary temperature of 320 °C, auxiliary gas at 12 aux unit, aux gas heater temperature of 200 °C, sheath gas at 35 aux units, and S-lens RF level of 50. LOX and its metabolites were separated using a 150 mm × 2.1 mm, 2.6-μm reverse-phase liquid chromatography column, Kinetex® C18 column (Phenomenex, CA, USA) at 40 °C. Furthermore, MS-grade solvents were used as the mobile phase in gradient elution mode: 0.1% aqueous formic acid as Solvent A and 0.1% formic acid in ACN as Solvent B. The flow was set to 0.22 mL/min with a gradient condition of Solvent B as 10% between 0 and 0.5 min, 10–50% between 0.5 and 21.5 min, 50–95% between 21.5 and 22.5 min, 95% between 22.5 and 25.5 min, 95–10% between 25.5 and 25.6 min, and 10% between 25.6 and 30 min.

[3] = pretreated DEX 40 mg/kg i.p. 3 days
[4] = pretreated KTC 60 mg/kg i.p. single dose
[5] = pretreated VH (10% ethanol) i.p. single dose
[6] = pretreated VH (corn oil) i.p. 3 days

Metabolic activity of other CYP enzymes (CYP1A, phenacetin O-demethylation), VH vs treated (CYP1A): unaffected
Metabolic activity of other CYP enzymes (CYP2D, dextromethorphan O-demethylation), VH vs treated (CYP2D): unaffected
Compound: C[C@@H]1C[C@H]2[C@@H]3CCC4=CC(=O)C=C[C@]4(C)[C@@]3(F)[C@@H](O)C[C@]2(C)[C@@]1(O)C(=O)CO [DEX, dexamethasone]

Compound: CC(=O)N1CCN(c2ccc(OCC3COC(Cn4ccnc4)(c4ccc(Cl)cc4Cl)O3)cc2)CC1 (stereo not shown) [KTC, ketoconazole]
Effect on the metabolism of CYP3A4 substrate (midazolam) compared to the VH group (CYP3A): significantly decreased
Metabolic activity of other CYP enzymes (CYP2D, dextromethorphan O-demethylation), VH vs treated (CYP2D): unaffected

AUC(0–60) [1, 3]: 29.9 ± 4.4 µg·min/mL
AUC(0–∞) [1, 3]: 31.5 ± 4.4 µg·min/mL
Cmax [1, 3]: 1.1 ± 0.2 µg/mL
T1/2 (elimination half-life) [1, 3]: 13.9 ± 0.6 min
Tmax [1, 3]: 10.0 ± 1.0 min
AUC(0–60) [1, 4]: 49.0 ± 5.9 µg·min/mL
AUC(0–∞) [1, 4]: 51.9 ± 6.1 µg·min/mL
Cmax [1, 4]: 1.6 ± 0.1 µg/mL
T1/2 (elimination half-life) [1, 4]: 13.4 ± 0.6 min
Tmax [1, 4]: 11.6 ± 0.8 min
AUC(0–60) [1, 5]: 36.0 ± 3.9 µg·min/mL
AUC(0–∞) [1, 5]: 38.4 ± 4.4 µg·min/mL
Cmax [1, 5]: 1.2 ± 0.1 µg/mL
T1/2 (elimination half-life) [1, 5]: 13.3 ± 0.9 min
Tmax [1, 5]: 13.3 ± 0.8 min
AUC(0–60) [1, 6]: 72.7 ± 12.4 µg·min/mL
AUC(0–∞) [1, 6]: 75.8 ± 12.8 µg·min/mL
Cmax [1, 6]: 2.4 ± 0.3 µg/mL
T1/2 (elimination half-life) [1, 6]: 12.3 ± 0.3 min
Tmax [1, 6]: 10.4 ± 0.7 min
Relative concentration in plasma (DEX average % of area, VH corn oil = 100) [2]: 61.9 ± 3.9%
Relative concentration in plasma (DEX average % of area, VH corn oil = 100) ([2]; listed as M2): 61.91%
Relative concentration in plasma (KTC average % of area, VH 10% ethanol = 100) [2]: 173.1 ± 5.8%
Relative concentration in plasma (KTC average % of area, VH 10% ethanol = 100) ([2]; listed as M2): 173.08%
Compound: CC(C(=O)O)c1ccc(CC2CCCC2O)cc1 (stereo not drawn) [cis-LOX]
